Read-outs that look alike come from different tables or passages of the source.
Columns and labels:
Pythium ultimum = assay: Threshold concentration test for use of the compounds against Pythium ultimum (infested soil, garden peas); format: in vivo; parameters: key to root evaluation (1-4): 4: white roots without fungous necrosis; 3: white roots, minor fungous necrosis; 2: brown roots, already more pronounced fungous necrosis; 1: heavy fungous necrosis, roots rotted; settings: for root evaluation (1-4): 3 weeks; for number of sound peas: 20 grains per dish, 3 weeks at 20-24° C.
In short: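 Garden pea seeds, 20 per dish, went straight into Pythium ultimum-infested soil into which 20% pulverulent formulations had been uniformly blended. Sound plants counted and roots rated 1–4 after three weeks of hothouse growth at 20–24 °C.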

Fusarium avenaceum [1] = assay: Threshold concentration test in case of Fusarium avenaceum (infested soil, garden peas); format: in vivo; settings: for number of sound peas: 20 grains per dish, 18 days at 20-24° C.; for root evaluation (1-4): 18 days
In short: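 Soil heavily infested with Fusarium avenaceum was mixed uniformly with a 20% powder formulation of active agent, then sown immediately with 20 garden pea seeds ('Wunder von Kelvedon') per dish. After 18 days in a greenhouse at 20° to 24° C., sound plants were counted and roots scored on a 1–4 scale.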

Penicillium digitatum = assay: Inhibition of fungus in a nutrient solution: Penicillium digitatum; format: cell-based; settings: 6 days at 21-23° C.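 Further: 0 means no fungus growth and higher grades mean more surface covered.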
Botrytis cinerea = assay: Inhibition of fungus in a nutrient solution: Botrytis cinerea; format: cell-based; settings: 6 days at 21-23° C.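 Further: 0 means no fungus growth and higher grades mean more surface covered.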
Alternaria solani = assay: Inhibition of fungus in a nutrient solution: Alternaria solani; format: cell-based; settings: 6 days at 21-23° C.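 Further: 0 means no fungus growth and higher grades mean more surface covered.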
Fusarium avenaceum [2] = assay: Inhibition of fungus in a nutrient solution: Fusarium avenaceum; format: cell-based; settings: 6 days at 21-23° C.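 Further: 0 means no fungus growth and higher grades mean more surface covered.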
Experimental: Inhibition of fungus in a nutrient solution
20 ml of a nutrient solution of grape juice and water (1:1) were filled into a glass vial of a 100 ml capacity and were mixed with the pulverulent active agents which appear from the subsequent table. Thereafter, the solution was inoculated with conidia (spores) of the test fungi.
After an incubation time of 6 days at 21° to 23° C. the fungus development on the surface of the nutrient solution was evaluated. The test fungi used were the following: Penicillium digitatum, Botrytis cinerea, Alternaria solani, Fusarium avenaceum.
The evaluation was carried out at a scale from 0 to 5 as follows: […]

Piricularia oryzae = format: in vivo; settings: concentration of active agent 0.1 (percentages); 5 days
Tilletia caries = assay: Seed treatment in open field tests regarding infestation by Tilletia caries (oats); format: in vivo; settings: winter oats; 100 g active agent/100 kg; about 9 months
[3] = test system: Helminthosporium gramineum; assay: Seed treatment in open field tests for infestation by Helminthosporium gramineum (barley); format: in vivo
Experimental: Seed treatment in open field tests for infestation by Helminthosporium gramineum
The active agents were used in the form of pulverulent compositions. After about 8 months in case of winter barley and after about 3 months in case of summer barley the infested plants were counted and the activity was calculated by the formula [formula]

Ustilago avenae = assay: Oat seed treatment for Ustilago avenae; format: in vivo; settings: 100 g active agent/100 kg; 10 weeks
Venturia inaequalis = assay: Prophylactic leaf treatment of apples in open field test against Venturia inaequalis; format: in vivo; settings: 3 weeks
Ustilago nuda tritici = assay: Treatment of wheat seeds in open field tests against Ustilago nuda tritici; format: in vivo; settings: winter wheat; 100 g/100 kg seeds; eight months
Experimental: (§1) Treatment of wheat and barley seeds in open field tests against Ustilago nuda
(§2) Winter wheat seeds which had been infested with the smut cause Ustilago nuda tritici and winter barley seeds infested with Ustilago nuda nuda were treated with the agents listed in the table below and were seeded at seeding time in open fields. As a control untreated seeds were likewise included in the seed. After eight months the affected heads were counted for each test group and their proportion was calculated in order to find the fungicidal activity by the following formula: [formula]
(§3) The active compounds were employed in the form of 20% concentration powder compositions.

Ustilago nuda nuda = assay: Treatment of barley seeds in open field tests against Ustilago nuda nuda; format: in vivo; settings: winter barley; 100 g/100 kg seeds; eight months
Experimental: as §1, §2, §3

Helminthosporium gram = settings: about 5 weeks
Experimental: Treatment of barley seeds infested with Helminthosporium gram
After emergence, the plants were subjected to illumination for 12 hours per day. After about 5 weeks the infested plants were counted and the total number of plants for each test were also counted. The active agents tested were used as pulverulent compositions.

[4] = test system: root gall nematodes (Meloidogyne sp.); assay: Threshold concentration test with root gall nematodes (cucumber, infested soil); format: in vivo; settings: 28 days at 24-27° C.
Description: Threshold concentration test with root gall nematodes (Meloidogyne sp.)
20% concentration pulverulent active agents as listed in the table below were mixed in a uniform manner with a soil which had been heavily infested by root gall nematodes. After waiting for 3 days the treated soil was placed in two clay dishes of a capacity of 0.5 liter. 10 grain of cucumber seeds of the type "Guntruud" were placed into each dish.
Thereafter, the contents of the dishes were permitted to develop at a temperature of 24° to 27° C. for a time of 28 days in a hothouse. The cucumber roots were then washed out and were examined in a water bath regarding nematode infestation. The reduction of the infestation by the active agents as compared with untreated control material was determined in percentages.
The nematocidal activity was calculated by the formula
A=the infestation in the untreated control material and
B=the infestation after treatment.

CC(C)S(=O)(=O)c1nnc(C#N)s1 [5-isopropylsulfonyl-1,3,4-thiadiazole-2-carbonitrile]
root evaluation (1-4) (Pythium ultimum; 20 mg/l soil): 2 | number of sound peas (Pythium ultimum; 20 mg/l soil): 18 | root evaluation (1-4) (Pythium ultimum; 40 mg/l soil): 4 | number of sound peas (Pythium ultimum; 40 mg/l soil): 20 | root evaluation (1-4) (Pythium ultimum; 80 mg/l soil): 4 | number of sound peas (Pythium ultimum; 80 mg/l soil): 19 | number of sound peas (Fusarium avenaceum [1]; 25 mg/l soil): 20 | root evaluation (1-4) (Fusarium avenaceum [1]; 25 mg/l soil): 4 | number of sound peas (Fusarium avenaceum [1]; 50 mg/l soil): 20 | root evaluation (1-4) (Fusarium avenaceum [1]; 50 mg/l soil): 4 | number of sound peas (Fusarium avenaceum [1]; 100 mg/l soil): 19 | root evaluation (1-4) (Fusarium avenaceum [1]; 100 mg/l soil): 4 | fungus development on the surface of the nutrient solution (0-5) (Penicillium digitatum; 0.002%): 0 | fungus development on the surface of the nutrient solution (0-5) (Penicillium digitatum; 0.004%): 0 | fungus development on the surface of the nutrient solution (0-5) (Botrytis cinerea; 0.002%): 1 | fungus development on the surface of the nutrient solution (0-5) (Botrytis cinerea; 0.004%): 0 | fungus development on the surface of the nutrient solution (0-5) (Alternaria solani; 0.002%): 0 | fungus development on the surface of the nutrient solution (0-5) (Alternaria solani; 0.004%): 0 | fungus development on the surface of the nutrient solution (0-5) (Fusarium avenaceum [2]; 0.002%): 0 | fungus development on the surface of the nutrient solution (0-5) (Fusarium avenaceum [2]; 0.004%): 0 | % activity (Piricularia oryzae): 94% | % activity (Tilletia caries): 100% | % activity ([3]; summer barley, 25 g active agent/100 kg barley, about 3 months): 100% | % activity ([3]; summer barley, 50 g active agent/100 kg barley, about 3 months): 99.8% | % activity ([3]; summer barley, 100 g active agent/100 kg barley, about 3 months): 100% | % activity ([3]; winter barley, 75 g active agent/100 kg barley, about 8 months): 99% | % activity ([3]; winter barley, 100 g active agent/100 kg barley, about 8 months): 100% | % activity (Ustilago avenae): 97% | % activity (Venturia inaequalis; concentration of active agent 0.005 (in gram)): 97% | % activity (Venturia inaequalis; concentration of active agent 0.025 (in gram)): 100% | % activity (Ustilago nuda tritici): 70% | % activity (Ustilago nuda nuda): 93% | % activity (Helminthosporium gram; 20 g active agent per 100 kg): 86% | % activity (Helminthosporium gram; 50 g active agent per 100 kg): 97%

CS(=O)(=O)c1nnc(C#N)s1 [5-methylsulfonyl-1,3,4-thiadiazole-2-carbonitrile]
root evaluation (1-4) (Pythium ultimum; 20 mg/l soil): 3 | number of sound peas (Pythium ultimum; 20 mg/l soil): 17 | root evaluation (1-4) (Pythium ultimum; 40 mg/l soil): 4 | number of sound peas (Pythium ultimum; 40 mg/l soil): 16 | root evaluation (1-4) (Pythium ultimum; 80 mg/l soil): 4 | number of sound peas (Pythium ultimum; 80 mg/l soil): 20 | number of sound peas (Fusarium avenaceum [1]; 25 mg/l soil): 18 | root evaluation (1-4) (Fusarium avenaceum [1]; 25 mg/l soil): 4 | number of sound peas (Fusarium avenaceum [1]; 50 mg/l soil): 17 | root evaluation (1-4) (Fusarium avenaceum [1]; 50 mg/l soil): 4 | number of sound peas (Fusarium avenaceum [1]; 100 mg/l soil): 19 | root evaluation (1-4) (Fusarium avenaceum [1]; 100 mg/l soil): 4 | fungus development on the surface of the nutrient solution (0-5) (Penicillium digitatum; 0.002%): 1 | fungus development on the surface of the nutrient solution (0-5) (Penicillium digitatum; 0.004%): 0 | fungus development on the surface of the nutrient solution (0-5) (Botrytis cinerea; 0.002%): 1 | fungus development on the surface of the nutrient solution (0-5) (Botrytis cinerea; 0.004%): 0 | fungus development on the surface of the nutrient solution (0-5) (Alternaria solani; 0.002%): 0 | fungus development on the surface of the nutrient solution (0-5) (Alternaria solani; 0.004%): 0 | fungus development on the surface of the nutrient solution (0-5) (Fusarium avenaceum [2]; 0.002%): 0 | fungus development on the surface of the nutrient solution (0-5) (Fusarium avenaceum [2]; 0.004%): 0 | Percentage reduction of infestation ([4]; 50 mg per liter soil): 71% | Percentage reduction of infestation ([4]; 100 mg per liter soil): 88% | Percentage reduction of infestation ([4]; 200 mg per liter soil): 96%

From patent publication US4281121A, “1,3,4-Thiadiazole-2-carboxylic acid derivatives, process for making the same and fungicidal and nematocidal compositions containing same” (Schering Aktiengesellschaft, priority 1978, dated 1981)
